Patent US20130252930A1 (BIOMARIN PHARMACEUTICAL INC., priority 2010, published 2013)

Each compound was assayed against T1, CYP17 (human testicular microsome) (Homo sapiens, UniProt P05093) (assay: CYP17 enzymatic assay (IC50) (Biological Example 4)). Conditions: human testicular microsome; read-out: CYP17 enzymatic assay IC50 (Biological Example No. 4).
T1 construct: using microsomal fraction from human testis (Celsis Cat #S00110) as the enzyme source; tissue Celsis S00110; host or cells: human testis microsomal fraction
T1 sequence (P05093 1-508): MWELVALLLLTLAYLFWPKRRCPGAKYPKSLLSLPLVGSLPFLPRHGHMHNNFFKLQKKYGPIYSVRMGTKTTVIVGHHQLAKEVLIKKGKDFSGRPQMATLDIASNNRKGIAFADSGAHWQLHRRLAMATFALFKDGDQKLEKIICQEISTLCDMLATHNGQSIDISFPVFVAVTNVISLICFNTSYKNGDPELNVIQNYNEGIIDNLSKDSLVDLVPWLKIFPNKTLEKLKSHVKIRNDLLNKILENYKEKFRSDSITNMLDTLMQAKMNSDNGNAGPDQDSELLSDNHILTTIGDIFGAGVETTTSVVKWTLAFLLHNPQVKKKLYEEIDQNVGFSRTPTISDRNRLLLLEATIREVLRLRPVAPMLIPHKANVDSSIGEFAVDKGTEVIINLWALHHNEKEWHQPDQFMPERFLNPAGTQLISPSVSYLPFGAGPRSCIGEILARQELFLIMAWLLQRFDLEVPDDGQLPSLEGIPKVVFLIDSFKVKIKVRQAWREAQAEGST
Assay type: biochemical
`C[C@]12CCC(F)(F)CC1CCC1C2CC[C@]2(C)C(c3cncc(F)c3)=CCC12` (stereo partly drawn) [Compound 405, 3-((10S,13S)-3,3-difluoro-10,13-dimethyl-2,3,4,5,6,7,8,9,10,11,12,13,14,15-tetradecahydro-1H-cyclopenta[a]phenanthren-17-yl)-5-fluoropyridine] was tested, and the IC50 was > 25 nM. `C[C@]12CCC(F)(F)CC1CCC1C2CC[C@]2(C)C(n3ccnc3)=CCC12` (stereo partly drawn) [Compound 406, 1-((10S,13S)-3,3-difluoro-10,13-dimethyl-2,3,4,5,6,7,8,9,10,11,12,13,14,15-tetradecahydro-1H-cyclopenta[a]phenanthren-17-yl)-1H-imidazole] was tested, and the IC50 was < 11 nM.

Each compound was assayed against T1, CYP17 (human testicular microsome) (assay: CYP17 enzymatic assay (% inhibition at 1 nM) (Biological Example 12)). Conditions: compound at 1 nM.
Assay type: biochemical
With `C[C@]12CCNC(=O)CC1CCC1C2CC[C@]2(C)C(c3cncc(F)c3)=CCC12` (stereo partly drawn) [Compound 481, (5aS,7aS)-8-(5-fluoropyridin-3-yl)-5a,7a-dimethyl-4,5,5a,5b,6,7,7a,10,10a,10b,11,12,12a-tetradecahydrocyclopenta[5,6]naphtho[1,2-d]azepin-2(1H)-one] the “Biological Example No. 12: CYP17 enzymatic assay % inhibition at 1 nM” value was “N (N means the compound had a percent inhibition of greater than or equal to 10% but less than 50%)”.

Same assay, conditions: compound at 1 nM, read-out: Biological Example No. 12: CYP17 enzymatic assay % inhibition at 1 nM
`C[C@]12CC[C@H]3[C@@H](CC=C4C[C@@H](OC(=O)Nc5cccnc5)CC[C@@]43C)C1=CC=C2c1cccnc1` [Compound 204, (3S,10R,13S)-10,13-dimethyl-17-(pyridin-3-yl)-2,3,4,7,8,9,10,11,12,13-decahydro-1H-cyclopenta[a]phenanthren-3-yl pyridin-3-ylcarbamate] gave an inhibition at 0.001 µM of 10 to 50%. For `CC(CO)(CO)C(=O)O[C@H]1CC[C@@]2(C)C(=CC[C@H]3C4=CC=C(c5cccnc5)[C@@]4(C)CC[C@@H]32)C1` [Compound 206, (3S,10R,13S)-10,13-dimethyl-17-(pyridin-3-yl)-2,3,4,7,8,9,10,11,12,13-decahydro-1H-cyclopenta[a]phenanthren-3-yl 3-hydroxy-2-(hydroxymethyl)-2-methylpropanoate], the inhibition at 0.001 µM was < 10%. `CC1(O)C=C2CC[C@@H]3[C@H](CC[C@]4(C)C(c5cccnc5)=CC[C@@H]34)[C@@]2(C)CC1` (stereo partly drawn) [Compound 422, (10R,13S)-3,10,13-trimethyl-17-(pyridin-3-yl)-2,3,6,7,8,9,10,11,12,13,14,15-dodecahydro-1H-cyclopenta[a]phenanthren-3-ol] gave an inhibition at 0.001 µM of 10 to 50%. For `C[C@]12CCC3(CCC(=O)O3)CC1CCC1C2CC[C@]2(C)C(c3cccnc3)=CCC12` (stereo partly drawn) [Compound 477, (10S,13S)-10,13-dimethyl-17-(pyridin-3-yl)-1,2,4,5,6,7,8,9,10,11,12,13,14,15-tetradecahydro-3′H-spiro[cyclopenta[a]phenanthrene-3,2′-furan]-5′(4′H)-one], the inhibition at 0.001 µM was < 10%. For `C[C@]12CC[C@H](O)CC1=CCC1C2CC[C@]2(C)C(c3cncc(NS(C)(=O)=O)c3)=CCC12` (stereo partly drawn) [Compound 284, N-(5-((3S,10R,13S)-3-hydroxy-10,13-dimethyl-2,3,4,7,8,9,10,11,12,13,14,15-dodecahydro-1H-cyclopenta[a]phenanthren-17-yl)pyridin-3-yl)methanesulfonamide], the inhibition at 0.001 µM was < 10%.

Same assay, conditions: compound at 1 nM, read-out: CYP17 enzymatic assay % inhibition at 1 nM (Biological Example No. 12)
Work on `C[C@]12CC[C@@H](NC(=O)c3nccs3)CC1=CC[C@@H]1[C@@H]2CC[C@]2(C)C(c3cccnc3)=CC[C@@H]12` [Compound 229, N-((3R,10R,13S)-10,13-dimethyl-17-(pyridin-3-yl)-2,3,4,7,8,9,10,11,12,13,14,15-dodecahydro-1H-cyclopenta[a]phenanthren-3-yl)thiazole-2-carboxamide] yielded an inhibition at 0.001 µM of 10 to 50%. For `CCNC(=S)N[C@@H]1CC[C@@]2(C)C(=CC[C@@H]3[C@@H]2CC[C@]2(C)C(c4cccnc4)=CC[C@@H]32)C1` [Compound 233, 1-((3R,10R,13S)-10,13-dimethyl-17-(pyridin-3-yl)-2,3,4,7,8,9,10,11,12,13,14,15-dodecahydro-1H-cyclopenta[a]phenanthren-3-yl)-3-ethylthiourea], the inhibition at 0.001 µM was 10 to 50%. For `CCNC(=O)NC1CC[C@@]2(C)C(=CC[C@@H]3[C@@H]2CC[C@]2(C)C(c4cncc(OC)c4)=CC[C@@H]32)C1` (stereo partly drawn) [Compound 234, 1-ethyl-3-((10R,13S)-17-(5-methoxypyridin-3-yl)-10,13-dimethyl-2,3,4,7,8,9,10,11,12,13,14,15-dodecahydro-1H-cyclopenta[a]phenanthren-3-yl)urea], the inhibition at 0.001 µM was 10 to 50%. For `C[C@]12CC[C@H]3[C@@H](CC(Nc4nccs4)C45CC4CC[C@]35C)[C@@H]1CC=C2c1cccnc1` (stereo partly drawn) [Compound 251, N-((3aR,5aS)-3a,5a-dimethyl-6-(pyridin-3-yl)-1,1a,2,3,3a,3b,4,5,5a,8,8a,8b,9,10-tetradecahydrocyclopenta[a]cyclopropa[2,3]cyclopenta[1,2-f]naphthalen-10-yl)thiazol-2-amine], the inhibition at 0.001 µM was 10 to 50%. Compound `Cc1ccccc1C(=O)O[C@H]1CC[C@@]2(C)C(=CCC3C4=CC=C(c5cccnc5)[C@@]4(C)CCC32)C1` (stereo partly drawn) [Compound 195, (3S,10R,13S)-10,13-dimethyl-17-(pyridin-3-yl)-2,3,4,7,8,9,10,11,12,13-decahydro-1H-cyclopenta[a]phenanthren-3-yl 2-methylbenzoate] has an inhibition at 0.001 µM of 10 to 50%. For `CO[C@H]1CC[C@@]2(C)[C@@H](CC[C@@H]3[C@@H]2CC[C@]2(C)C(c4cnccc4C)=CC[C@@H]32)C1` [Compound 458, 3-((3S,5S,8R,9S,10S,13S,14S)-3-methoxy-10,13-dimethyl-2,3,4,5,6,7,8,9,10,11,12,13,14,15-tetradecahydro-1H-cyclopenta[a]phenanthren-17-yl)-4-methylpyridine], the inhibition at 0.001 µM was 10 to 50%. `Cc1ccncc1C1=CC=C2C3CCC4CNC(=O)CC[C@]4(C)C3CC[C@]12C` (stereo partly drawn) [Compound 464, (5aR,7aS)-5a,7a-dimethyl-8-(4-methylpyridin-3-yl)-1,2,5,5a,5b,6,7,7a,10b,11,12,12a-dodecahydrocyclopenta[5,6]naphtho[2,1-c]azepin-3(4H)-one] showed an inhibition at 0.001 µM of 10 to 50%. For `CCc1cncc(C2=CC[C@H]3[C@@H]4CC[C@H]5C[C@@H](OC)CC[C@]5(C)[C@H]4CC[C@]23C)c1` [Compound 455, 3-ethyl-5-((3S,5S,8R,9S,10S,13S,14S)-3-methoxy-10,13-dimethyl-2,3,4,5,6,7,8,9,10,11,12,13,14,15-tetradecahydro-1H-cyclopenta[a]phenanthren-17-yl)pyridine], the inhibition at 0.001 µM was 10 to 50%. With `CNC1C[C@H]2[C@@H]3CC=C(n4ccnc4)[C@@]3(C)CC[C@@H]2[C@@]2(C)CCC3CC312` (mixture of isomers) [Compound 248, (3aR,5aS)-6-(1H-imidazol-1-yl)-N,3a,5a-trimethyl-1,1a,2,3,3a,3b,4,5,5a,8,8a,8b,9,10-tetradecahydrocyclopenta[a]cyclopropa[2,3]cyclopenta[1,2-f]naphthalen-10-amine] the inhibition at 0.001 µM was < 10%. With `COc1cncc(C2=CC[C@H]3[C@@H]4CC[C@H]5C[C@@H](OC)CC[C@]5(C)[C@H]4CC[C@]23C)c1` [Compound 456, 3-methoxy-5-((3S,5S,8R,9S,10S,13S,14S)-3-methoxy-10,13-dimethyl-2,3,4,5,6,7,8,9,10,11,12,13,14,15-tetradecahydro-1H-cyclopenta[a]phenanthren-17-yl)pyridine] the inhibition at 0.001 µM was 10 to 50%.

Same assay, conditions: test compound at 1 nM, read-out: CYP17 enzymatic assay percent inhibition at 1 nM (Biological Example No. 12)
`C[C@]1(O)CC[C@@]2(C)C(=CCC3C2CC[C@]2(C)C(c4cncc(F)c4)=CCC32)C1` (stereo partly drawn) [Compound 270, (3S,10R,13S)-17-(5-fluoropyridin-3-yl)-3,10,13-trimethyl-2,3,4,7,8,9,10,11,12,13,14,15-dodecahydro-1H-cyclopenta[a]phenanthren-3-ol] showed an inhibition at 0.001 µM of 10 to 50%. `CCC(=O)O[C@H]1CC[C@@]2(C)C(=CCC3C4=CC=C(c5cccnc5)[C@@]4(C)CCC32)C1` (stereo partly drawn) [Compound 193, (3S,10R,13S)-10,13-dimethyl-17-(pyridin-3-yl)-2,3,4,7,8,9,10,11,12,13-decahydro-1H-cyclopenta[a]phenanthren-3-yl propionate] was tested, and the inhibition at 0.001 µM was 10 to 50%. For `C[C@@]1(O)CC[C@@]2(C)C(=CCC3C2CC[C@]2(C)C(c4cccnc4)=CCC32)C1` (stereo partly drawn) [Compound 267, (3R,10R,13S)-3,10,13-trimethyl-17-(pyridin-3-yl)-2,3,4,7,8,9,10,11,12,13,14,15-dodecahydro-1H-cyclopenta[a]phenanthren-3-ol], the inhibition at 0.001 µM was > 50%. `C[C@]12CCC3C(CC=C4C[C@@H](OC(=O)c5ccccc5)CC[C@@]43C)C1=CC=C2c1cccnc1` (stereo partly drawn) [Compound 194, (3S,10R,13S)-10,13-dimethyl-17-(pyridin-3-yl)-2,3,4,7,8,9,10,11,12,13-decahydro-1H-cyclopenta[a]phenanthren-3-yl benzoate] was tested, and the inhibition at 0.001 µM was 10 to 50%. With `C[C@]1(O)CC[C@@]2(C)C(=CCC3C2CC[C@]2(C)C(c4cccnc4)=CCC32)C1` (stereo partly drawn) [Compound 268, (3S,10R,13S)-3,10,13-trimethyl-17-(pyridin-3-yl)-2,3,4,7,8,9,10,11,12,13,14,15-dodecahydro-1H-cyclopenta[a]phenanthren-3-ol] the inhibition at 0.001 µM was > 50%.
